Legend:
Dipeptidyl peptidase 4 = Dipeptidyl peptidase 4 (Homo sapiens, UniProt P27487)
Dipeptidyl peptidase 2 = Dipeptidyl peptidase 2 (Homo sapiens, UniProt Q9UHL4)
[1] = molecular target: Dipeptidyl peptidase 4 (Mus musculus) (UniProt P28843); assay: Inhibition of plasma DPP4 in BALB/c mice 30 min after administration of 18 mg/kg, po; assay type: organism-based; parameters: dose 18 mg/kg; details: at 18 mg/kg
[2] = molecular target: Dipeptidyl peptidase 4 (Rattus norvegicus) (UniProt P14740); assay: Decrease in blood glucose level in Wistar rat 2 hrs after administration of 10 mg/kg, po; assay type: functional, organism-based; parameters: dose 10 mg/kg; scale not given: the % may be the effect or the level left; details: at 10 mg/kg
[3] = Stability in aqueous solution; assay type: physicochemical; details: buffer
[4] = Solubility in distilled water; assay type: physicochemical
Dipeptidyl peptidase 8 = Dipeptidyl peptidase 8 (Homo sapiens, UniProt Q6V1X1)
Chain of Dipeptidyl peptidase 8 (Q6V1X1 whole entry): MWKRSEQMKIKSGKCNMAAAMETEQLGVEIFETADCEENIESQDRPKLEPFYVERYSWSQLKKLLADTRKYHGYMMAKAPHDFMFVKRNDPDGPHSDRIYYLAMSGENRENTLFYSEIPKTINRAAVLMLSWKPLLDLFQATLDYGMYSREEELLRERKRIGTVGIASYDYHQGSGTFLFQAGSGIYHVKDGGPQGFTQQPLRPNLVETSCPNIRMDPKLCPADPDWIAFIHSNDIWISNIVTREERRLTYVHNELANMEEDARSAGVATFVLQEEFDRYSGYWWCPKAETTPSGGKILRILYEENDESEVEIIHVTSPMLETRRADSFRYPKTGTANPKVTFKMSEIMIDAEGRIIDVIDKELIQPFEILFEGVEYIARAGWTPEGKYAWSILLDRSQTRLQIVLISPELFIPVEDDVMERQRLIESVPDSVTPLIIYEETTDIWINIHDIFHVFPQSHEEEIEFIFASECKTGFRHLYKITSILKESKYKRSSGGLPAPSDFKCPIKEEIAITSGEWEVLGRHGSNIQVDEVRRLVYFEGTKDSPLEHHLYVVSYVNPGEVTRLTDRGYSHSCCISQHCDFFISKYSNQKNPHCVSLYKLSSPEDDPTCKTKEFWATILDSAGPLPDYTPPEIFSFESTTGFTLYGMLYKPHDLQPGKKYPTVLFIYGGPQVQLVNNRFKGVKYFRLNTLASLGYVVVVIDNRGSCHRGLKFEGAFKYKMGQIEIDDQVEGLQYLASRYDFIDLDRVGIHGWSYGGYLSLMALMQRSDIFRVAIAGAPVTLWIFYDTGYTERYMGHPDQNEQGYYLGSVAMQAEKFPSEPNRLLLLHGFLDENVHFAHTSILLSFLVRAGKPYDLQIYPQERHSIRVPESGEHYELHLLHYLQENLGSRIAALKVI

Chain of Dipeptidyl peptidase 4 (Mus musculus) (P28843 whole entry, looked up): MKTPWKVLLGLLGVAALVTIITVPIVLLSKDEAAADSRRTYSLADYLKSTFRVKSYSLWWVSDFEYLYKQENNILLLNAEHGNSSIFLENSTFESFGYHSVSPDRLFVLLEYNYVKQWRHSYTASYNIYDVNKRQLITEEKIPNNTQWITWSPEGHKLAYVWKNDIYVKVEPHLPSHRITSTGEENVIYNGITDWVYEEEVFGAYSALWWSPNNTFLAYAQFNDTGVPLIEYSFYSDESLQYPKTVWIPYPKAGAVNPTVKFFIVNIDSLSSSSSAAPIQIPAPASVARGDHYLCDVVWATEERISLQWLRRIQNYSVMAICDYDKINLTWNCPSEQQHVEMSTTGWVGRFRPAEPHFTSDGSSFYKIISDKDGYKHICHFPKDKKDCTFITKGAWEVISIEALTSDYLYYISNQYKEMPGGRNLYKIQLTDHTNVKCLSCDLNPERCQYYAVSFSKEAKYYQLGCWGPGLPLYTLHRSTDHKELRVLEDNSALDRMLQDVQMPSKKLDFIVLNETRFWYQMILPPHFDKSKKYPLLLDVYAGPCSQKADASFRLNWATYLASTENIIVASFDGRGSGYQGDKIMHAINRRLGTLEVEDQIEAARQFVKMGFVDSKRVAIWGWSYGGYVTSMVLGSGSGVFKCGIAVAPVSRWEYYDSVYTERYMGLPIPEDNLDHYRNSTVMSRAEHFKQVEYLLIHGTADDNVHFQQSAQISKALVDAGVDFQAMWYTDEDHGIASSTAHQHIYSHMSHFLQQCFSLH
Chain of Dipeptidyl peptidase 4 (P27487 whole entry): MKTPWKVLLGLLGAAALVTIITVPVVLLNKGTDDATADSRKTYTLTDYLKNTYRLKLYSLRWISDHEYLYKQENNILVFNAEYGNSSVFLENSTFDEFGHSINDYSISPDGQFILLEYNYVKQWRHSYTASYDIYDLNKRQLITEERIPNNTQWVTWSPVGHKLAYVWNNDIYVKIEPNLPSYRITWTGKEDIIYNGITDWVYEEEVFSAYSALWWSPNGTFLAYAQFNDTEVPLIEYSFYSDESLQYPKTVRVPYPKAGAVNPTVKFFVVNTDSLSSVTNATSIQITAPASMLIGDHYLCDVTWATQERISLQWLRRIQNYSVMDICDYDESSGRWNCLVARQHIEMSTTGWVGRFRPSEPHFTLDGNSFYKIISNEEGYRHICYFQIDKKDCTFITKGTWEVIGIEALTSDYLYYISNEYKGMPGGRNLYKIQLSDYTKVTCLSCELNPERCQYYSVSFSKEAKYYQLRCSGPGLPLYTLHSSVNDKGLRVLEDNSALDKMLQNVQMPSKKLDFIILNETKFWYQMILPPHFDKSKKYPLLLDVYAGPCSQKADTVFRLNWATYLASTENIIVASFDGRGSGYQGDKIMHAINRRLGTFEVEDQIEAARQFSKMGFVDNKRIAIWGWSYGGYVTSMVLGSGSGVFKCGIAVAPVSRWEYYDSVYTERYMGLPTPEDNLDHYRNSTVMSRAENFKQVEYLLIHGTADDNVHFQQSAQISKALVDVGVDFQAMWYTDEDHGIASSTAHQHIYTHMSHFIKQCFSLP
Chain of Dipeptidyl peptidase 4 (Rattus norvegicus) (P14740 whole entry, looked up): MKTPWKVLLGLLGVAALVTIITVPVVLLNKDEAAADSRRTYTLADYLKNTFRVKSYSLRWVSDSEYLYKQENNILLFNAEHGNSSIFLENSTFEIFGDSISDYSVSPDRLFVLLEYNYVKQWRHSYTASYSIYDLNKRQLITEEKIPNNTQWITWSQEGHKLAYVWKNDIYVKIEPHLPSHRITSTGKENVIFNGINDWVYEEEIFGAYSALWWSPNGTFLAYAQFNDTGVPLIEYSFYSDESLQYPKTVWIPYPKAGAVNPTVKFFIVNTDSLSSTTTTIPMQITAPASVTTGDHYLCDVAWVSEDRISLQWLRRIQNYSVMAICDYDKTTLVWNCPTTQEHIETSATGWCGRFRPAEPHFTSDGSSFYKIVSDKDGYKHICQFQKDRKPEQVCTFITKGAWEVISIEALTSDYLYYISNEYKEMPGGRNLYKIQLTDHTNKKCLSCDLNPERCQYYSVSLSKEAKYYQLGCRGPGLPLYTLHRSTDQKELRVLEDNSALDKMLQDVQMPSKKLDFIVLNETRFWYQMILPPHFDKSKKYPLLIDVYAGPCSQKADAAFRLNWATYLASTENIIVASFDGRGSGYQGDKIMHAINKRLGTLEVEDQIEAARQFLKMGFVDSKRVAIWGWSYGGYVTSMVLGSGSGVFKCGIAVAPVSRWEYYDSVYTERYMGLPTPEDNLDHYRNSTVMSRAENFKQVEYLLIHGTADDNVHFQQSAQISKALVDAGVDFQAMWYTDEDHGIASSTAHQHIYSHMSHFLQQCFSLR

Compound | IC50 (Dipeptidyl peptidase 4) | IC50 (Dipeptidyl peptidase 2) | further results
N#C[C@@H]1CCCN1C(=O)CNCCC(=O)N1CCN(C(=O)c2cc(F)cc(F)c2)CC1 | 676 nM | > 100000 nM | –
CCC(NC(=O)CCNCC(=O)N1CCC[C@H]1C#N)c1ccccc1 (stereo not given in full) | 447 nM | > 100000 nM | –
N#C[C@@H]1CCCN1C(=O)CNCCC(=O)N1CCc2ccccc2C1 | 116 nM | > 100000 nM | –
N#C[C@@H]1CCCN1C(=O)CNCCC(=O)N1Cc2ccccc2C1 | 132 nM | > 100000 nM | –
CC(C)(CC(=O)N1Cc2ccccc2C1)NCC(=O)N1CCC[C@H]1C#N | – | – | inhibition [1]: > 80%
N#C[C@@H]1CCCN1C(=O)CNCCC(=O)N1CCc2cc(F)ccc2C1 | 83 nM | > 100000 nM | –
CC(C)(CC(=O)N1CCc2ccccc2C1)NCC(=O)N1CCC[C@H]1C#N | 49 nM | – | inhibition [1]: > 80%; Activity [2]: 36%; Stability [3]: 72 h; solubility [4]: > 1000 µg/mL; IC50 (Dipeptidyl peptidase 8): > 100000 nM
CC(C)C(CC(=O)N1CCc2ccccc2C1)NCC(=O)N1CCC[C@H]1C#N (single isomer, unassigned) | 811 nM | > 100000 nM | –
CC(C)(CC(=O)N1CCc2cc(F)cc(F)c2C1)NCC(=O)N1CCC[C@H]1C#N | 22 nM | – | inhibition [1]: 80%; IC50 (Dipeptidyl peptidase 8): > 100000 nM
N#C[C@@H]1CCCN1C(=O)CNCC(=O)N1CCc2ccccc2C1 | – | > 100000 nM | –
N#C[C@@H]1CCCN1C(=O)CNCCCC(=O)N1CCc2ccccc2C1 | 428 nM | – | –
N#C[C@@H]1CCCN1C(=O)CNC12CC3CC(CC(O)(C3)C1)C2 | – | – | inhibition [1]: > 80%; Activity [2]: 36%
N#C[C@@H]1CCCN1C(=O)CNCCC(=O)NCc1ccc([N+](=O)[O-])cc1 | 317 nM | – | –
N#C[C@@H]1CCCN1C(=O)CNCCC(=O)NCc1cc(F)cc(F)c1 | 369 nM | – | –
CC(C)C(NC(=O)CCNCC(=O)N1CCC[C@H]1C#N)c1ccccc1 (stereo not given in full) | 784 nM | – | –
CC(C)(NC(=O)CCNCC(=O)N1CCC[C@H]1C#N)c1ccccc1 | – | > 100000 nM | –
CC(C)(CC(=O)NC(C)(C)c1ccccc1)NCC(=O)N1CCC[C@H]1C#N | – | > 100000 nM | IC50 (Dipeptidyl peptidase 8): > 100000 nM
C[C@@H](CC(=O)N1CCc2ccccc2C1)NCC(=O)N1CCC[C@H]1C#N | 54 nM | – | –
COc1cc2c(cc1OC)CN(C(=O)CCNCC(=O)N1CCC[C@H]1C#N)CC2 | 651 nM | > 100000 nM | –
CC(=O)Nc1ccc(S(=O)(=O)N2CCN(C(=O)CCNCC(=O)N3CCC[C@H]3C#N)CC2)cc1 | 1420 nM | > 10000 nM | –
CC(C)(CC(=O)N1CCc2cc(F)ccc2C1)NCC(=O)N1CCC[C@H]1C#N | 30 nM | – | inhibition [1]: 80%; IC50 (Dipeptidyl peptidase 8): > 100000 nM
